Several values for one entry are separate records, joined by “and”; a condition that tells them apart may be missing. Equal values may be shown once. One block for each compound: values may come before it.
Key:
[1] = Large tablet compaction, 2.5-inch punch and die, Carver Press; conditions: 63.8 g, 2.5-inch die, 5000 psi, no dwell time, silicone oil lubricant
[2] = Compaction test: tablet pressed in die, visual observation on extraction; type: physicochemical; conditions: 0.71 inch die, 5000 psi, no dwell time, die dusted with MICROPRO 400; listed as control sample
[3] = Storage stability at 50° C., wt % active bromine by iodometric titration; type: physicochemical
Description: Three more samples of the blend (5 g each) were compacted in the same manner, and each time a single tablet was extracted from the die after the pressure had been released. The tablets were manually broken into two equally-sized pieces. One half of each tablet was crushed into a powder with a mortar and pestle, and the powder was titrated using the standard, well-known, iodometric method with a starch indicator to determine the wt % of active bromine. The other half of each tablet was placed in a sealed glass vial and placed in an oven at 50° C. After 30 days, the samples were removed from the oven, ground up, and titrated to determine its wt % of active bromine using the same analytical method.

[4] = Granulation through Chilsonator breaker and screens; type: physicochemical; conditions: Chilsonator breaker, screens U.S. mesh 12 to 18
Method: The mixing time was 60 minutes in each case. […] The mixing time was 240 minutes. Each blend was passed through a Chilsonator® breaker (The Fitzpatrick Company, Elmhurst, Ill.) and a set of screens to produce compacted granules of U.S. mesh size 12 to 18. […] Instead, the unblended material exiting the Chilsonator® was mostly loose powder.

[5] = Crush strength test (Sintech 1/S compression apparatus); type: physicochemical; conditions: Table 8, no binder; for Crush Strength (force at breaking point), single tablet / Crush Strength per inch thickness, single tablet: 5 g, 5000 psi, aged 6 days at room temperature
Description: In each test, tablets made from 5 g of blended material were used. […] The apparatus includes a horizontal circular-shaped load cell interfaced with a computer, a digital micrometer also interfaced with the computer, and a vertical screw-driven piston that is disposed above the load cell and adapted to apply a downward force perpendicular to the load cell. The procedure for measuring crush strength involves measuring the thickness of the tablet with the micrometer to provide a digitized input to the computer. Next the tablet is placed on its edge on the load cell with the piston in contact with the upper edge of the tablet. Then the apparatus is activated whereby the piston commences applying a progressively increasing downward diametral force to the tablet. At the same time, the load cell continuously measures the downward force being applied to the tablet, and the input of such measurements is transmitted to the computer. When the force being applied reaches the point where the amount of force suddenly decreases to 10% of the immediately preceding force, the tablet has reached the breaking point, and the application of the force is immediately terminated by the software program. From the inputs to the computer, two values are provided, namely the pounds of force at the breaking point of the tablet, and the pounds of force per inch thickness of the tablet at the breaking point. Thus the greater the force applied, the greater the crush strength. […] When the compacted article is in a form other than a cylindrical tablet (e.g., a granule, caplet, briquette, or puck), the article being tested is to be positioned on the load cell and under the screw-driven piston with the longest axis of the article in the vertical position. In addition, the micrometer is used to measure the thickest portion of the article when the article is positioned on the load cell and under the screw-driven piston with the longest axis of the article in the vertical position.

[6] = Naproxen caplet compaction at 25,000 psi; type: physicochemical; conditions: imprinted stainless steel punch and die, 0.12-inch cross-sectional area
Method: A blend of commercially available virgin naproxen powder (Albemarle Corporation, Richmond, Va.) and micronized polyethylene wax (MPP-611; Micro Powders, Inc., Tarrytown, N.Y.) was formed. The blend contained 10 wt % of the micronized wax. Two 250 mg samples and three 318 mg samples of this blend were compacted in an imprinted stainless steel punch and die set of 0.12-inch cross-sectional area. Upon attaining a pressure of 25,000 psi, the pressure was released. […] The caplets were shiny and free of edge-burrs and surface defects. The imprinted lettering from the top punch was clearly impressed into the caplets.
Instead, as the punches were separated, approximately half of the naproxen had stuck to the top punch and the remainder had stuck to the bottom punch.

- Observations (large tablet on extraction from die) [1]: Intact tablet exhibiting
Structure (SMILES): CC1(C)C(=O)N(Br)C(=O)N1Br

- Wt % Active Bromine, Initial ([3]; half tablet crushed, iodometric titration): 55.3 Wt %
- Wt % Active Bromine, After 30 days ([3]; half tablet in sealed glass vial, oven at 50° C., 30 days): 55.2 Wt %
- Compaction into granules [4]: did not compact and form granules
- Observations (large tablet on extraction from die) ([1]; listed as Commercial sample without binder): Tablet delaminates
Structure (SMILES): CC1(C)C(=O)N(Br)C(=O)N1Br [DBDMH - without wax binder]
- Observations (tablet on extraction from die) [2]: not possible to extract a single tablet from the die

- Crush Strength (force at breaking point), average of set ([5]; listed as A): 22.4 lb.
- Crush Strength per inch thickness, average of set ([5]; listed as A): 61.3 lb./in.
Structure (SMILES): CC1(C)C(=O)N(Br)C(=O)N1Br [Set A]
- Crush Strength (force at breaking point), single tablet ([5]; listed as A): 20.9 lb. and 25.5 lb. and 19.2 lb. and 22.8 lb. and 23.7 lb.
- Crush Strength per inch thickness, single tablet ([5]; listed as A): 57.3 lb./in. and 69.5 lb./in. and 52.5 lb./in. and 62.1 lb./in. and 65.0 lb./in.

- Crush Strength (force at breaking point), single tablet ([5]; listed as B): 10.7 lb. and 12.8 lb. and 9.8 lb.
- Crush Strength (force at breaking point), average of set ([5]; listed as B): 11.1 lb.
- Crush Strength per inch thickness, average of set ([5]; listed as B): 31.5 lb./in.
Structure (SMILES): CC1(C)C(=O)N(Br)C(=O)N1Br [Set B]
- Crush Strength per inch thickness, single tablet ([5]; listed as B): 30.4 lb./in. and 36.4 lb./in. and 27.8 lb./in.

Structure (SMILES): COc1ccc2cc([C@H](C)C(=O)O)ccc2c1 [naproxen]
- Caplet formation [6]: No unbroken caplet of naproxen could be produced
